Results on six compounds are retold here after US20230357312A1, “Borylated Di-Peptide Amino Acid compositions for use in Boron Neutron Capture Therapy and methods thereof” (TAE Life Sciences, priority 2021, published 2023).

One may read the solubility as how much of the substance goes into solution per volume.

Data set [1] deals with FaDu cells. The data set can be described thus: Borylated dipeptide uptake in cancer cell lines (boron by ICP-OES). It counts as cell-based, human. The settings on record: 2.5 mM in HBSS, 37° C., 2 hrs; FaDu: high LAT1, PEPT1 negative. The method, then: (§1) The indicated cancer cell line (A) or FaDu cells (B) were harvested from culture and washed twice with PBS. Cell lines were adjusted to 2 million cells/ml in Hanks Balanced Salt Solution (HBSS). BPA or dipeptide boron compounds were added to cells at the final concentration of 2.5 mM in HBSS and the treated cells were incubated at 37° C. 5% CO2 for 2 hrs with shaking. The cells were collected by centrifugation; washed with cold PBS twice and reconstituted in 1 ml of cold PBS. Then, 50 µl of cell suspension was removed, pelleted, and lysed using RIPA buffer and the protein concentration was determined using BCA assay. The remaining 950 µl was used for boron compounds uptake measurements using ICP-OES.
To this end, 0.5 mL of concentrated nitric acid was added to each cell pellet in a 15 mL conical tube. The tubes were capped and placed in an oven set at 80° C. for 3 hours. 2 mL of water was added’ to each sample to bring the final volume up to 2.5 mL. The boron content in each sample was then measured on an Agilent 5110 ICP-OES using an Agilent SPS4 Autosampler for sample introduction.
The data was analyzed using Agilent’s ICP Expert Software, version 7.4.2.10790. Boron was measured axially at the 249.772 nm wavelength and the internal standard Beryllium was measured axially at the 313.042 nm wavelength. Beryllium was tee-ed into the solution at 1:5 the flowrate before introduction to the spray chamber. A standard curve using 1000, 100, 10, 1 and 0 ppb of boron was used to calculate the concentration of boron in each sample. Once determined, the boron measurement for each sample was normalized to protein content and final boron uptake results were expressed as ng boron/mg protein.
In another experiment, uptake of BPA and dipeptide His-BPA was carried out in FaDu, and ASPC-1 as described in FIG. 15. […] Accordingly, the data supports the finding that borylated dipeptides may be taken up efficiently in PEPT1 or other dipeptide transporter expressing cancers. See, FIG. 16(C).
In this experiment, the uptake of several dipeptide and dipeptide analogs was carried out in FaDu and ASPC-1 cells. Normalized boron uptake was determined as in FIG. 15. […] However, several dipeptides are still taken up in PEPT1 negative FaDu cells, although to a lower extent, which further confirms the proposition that an uptake mechanism does exist in FaDu cells for these dipeptides that is not PEPT1. See, FIG. 19.

Data set [2] relates to FaDu cells. Description: Dipeptide degradation to BPA by HPLC. The following applies: for relative conversion into BPA in the presence of cells: 2.5 mM in HBSS, 4 hrs at 37° C., FaDu cells, RP-HPLC/MS semi-quantitative. It counts as in vitro ADME, human. Here is the method:
In this experiment, to investigate whether dipeptides are converted to BPA, which is then taken up through its cognate transporter, evaluation of whether dipeptides remained intact in the tissue culture media in the presence of absence of cancer cells was made using the following protocols. Briefly, FaDu cells were harvested and counted. The cell number was adjusted to 50×10^5 / mL in the HBSS tissue culture medium using 1 mL per well. The cells were incubated at 37° C. in the 5% CO2 overnight. At the end, the supernatants were aspirated, and cells were rinsed with 1 mL PBS once. Each test article was prepared at 2.5 mM concentration in HBSS medium, and 0.4 mL was added to cells. After 4 hrs. at 37° C. the supernatants were harvested and analyzed by RP HPLC using an ACQUITY BEH C18 column 2.1 × […] (Waters) equipped with a matching guard column equilibrated with 2% aqueous acetonitrile/0.1% formic acid mobile phase. The dipeptides were separated in the gradient of 90% acetonitrile/10% water/0.1% formic acid to 20% in 6 min and identified by UV225 nm. The masses were confirmed by an online QDA mass spectrometer. Breakdown of the original dipeptide was quantitated by comparing with the control - the same dipeptide incubated in the same fashion in the absence of cells. Stabilities of BPA-BPA, Ala-BPA, and BPA-Ala were compared, and the formation of BPA was measured semi-quantitatively by RP-HPLC/MS.

In another data set the test system is AsPC-1 cells. The data set can be described thus: Uptake inhibition by PEPT1 competitive inhibitor Gly-SAR. The settings on record: 0.8 mM test compound, with and without Gly-SAR. In kind it is cell-based, human. The method, then:
(§2) In this experiment, uptake of BPA and dipeptide His-BPA (0.8 mM of each) was carried out in FaDu and ASPC-1 in the presence and absence of the indicated concentrations of PEPT1 dipeptide transporter competitive inhibitor Gly-SAR. Normalized boron uptake was determined as in FIG. 15.

Data set [3] has as its system FaDu cells. Described as above. The settings on record: 0.8 mM test compound, with and without Gly-SAR. It counts as cell-based, human. Here is the method:
as §2

The test system of data set [4] is CT26 xenografts. Description: BNCT study, 12 or 6 minute irradiation at 5 MW. It counts as in vivo, BALB/c mice. The settings on record: monitored to 22 days. The method, then: Following one (1) hour of treatment time, mice were irradiated for either 12 minutes (33(A)) or 6 minutes (33(B)) at the Kyoto University Research Reactor (Kyoto, Japan) 1 set at 5 megawatts. Data are the means ± SD of 3 mice per treatment group. Tumors were measured for growth out to 22 days.

Data set [5] has as its system CT26 xenografts. The data set can be described thus: BNCT tumor regression study, 6 minute irradiation. The settings on record: 6 minutes irradiation. It counts as in vivo, BALB/c mice. The method, then: In this experiment, CT26 xenografts in BALB/c mice were dosed with 400 mg/kg of BPA or 900 mg/kg of His-BPA or BPA-BPA. Following one (1) hour treatment time, mice were irradiated for 6 minutes at the Kyoto University Research Reactor (Kyoto, Japan) 1 set at 5 megawatts. Data are the means ± SD of 3 mice per treatment group. Tumors were measured for growth out to 36 days and examined for tumor presence at 40 days. BPA and control groups were sacrificed at day 18 due to excessive tumor growth.

The conditions of data set [6]: cited from earlier work.
A short description of a further data set: Solubility. In kind it is physicochemical.
Another data set has as its system CT26. The data set can be described thus: Borylated dipeptide uptake in cancer cell lines (boron by ICP-OES). In kind it is cell-based, mouse. The following applies: 2.5 mM in HBSS, 37° C., 2 hrs. The method, then: as §1
(§3) To this end, 0.5 mL of concentrated nitric acid was added to each cell pellet in a 15 mL conical tube. The tubes were capped and placed in an oven set at 80° C. for 3 hours. […] The boron content in each sample was then measured on an Agilent 5110 ICP-OES using an Agilent SPS4 Autosampler for sample introduction.
(§4) The data was analyzed using Agilent’s ICP Expert Software, version 7.4.2.10790. Boron was measured axially at the 249.772 nm wavelength and the internal standard Beryllium was measured axially at the 313.042 nm wavelength. […] Once determined, the boron measurement for each sample was normalized to protein content and final boron uptake results were expressed as ng boron/mg protein.

Another data set deals with T98G. The description is as above. It counts as cell-based, human. The settings on record: 2.5 mM in HBSS, 37° C., 2 hrs. Here is the method: as §1, §3, §4
The subject of another data set is A431. The data set is described as above. In kind it is cell-based. The settings on record: 2.5 mM in HBSS, 37° C., 2 hrs. The method, then:
as §1, §3, §4

The nature of data set [7]: Pharmacokinetics (blood boron by ICP OES). It counts as in vivo, Balb/C non-tumor bearing male mice. The settings on record: tail vein injection. The method, then: In this experiment, pharmacokinetics of BPA-BPA was evaluated using the following protocols. Briefly, […] of each compound was injected in the tail vein of Balb/C non-tumor bearing male mice (5 mice per group). Blood was drawn at the following time points: 2, 5, 16, 30, 60, 120 and 240 minutes into EDTA-coated tubes. Boron concentration was measured using ICP OES following the digestion in concentrated nitric acid for 1 hour. The boron concentration was normalized to 1 mL of blood and plotted using GraphPad Prizm. The PK parameters (see, FIG. 22, Table) were obtain using PK Solver ver. 2.0 using compartmental analysis BPA-fructose was used as a reference substance.

In data set [8] the test system is FaDu, Detroit-562, MeWo, HCC-1954, A549 and AsPC-1 human cancer xenograft models. The data set can be described thus: Dose escalation of boron delivery, all tested xenograft models. It counts as in vivo, CB17 SCID mice. The following applies: 1000 mg/kg, 120 minutes. Here is the method: Tumors were harvested 120 minutes following treatment and boron content determined by ICP-OES. Data are the means ± SD of 5 mice per treatment group.

Data set [9] is described as follows: Pharmacokinetics of BPA-BPA. The source says:
Table printed on a drawing sheet, Figure 28, continued. Title: Pharmacokinetics of BPA-BPA The patent's description of the figure: FIG. 28. Pharmacokinetics of BPA-BPA. First reader's note: Continuation of Figure 28; BPA-BPA is a borylated dipeptide, BPA Fructose is the comparator formulation.

A further data set concerns intracranial tumor. The settings on record: BNCT, Japan, 1968; cited from earlier work.

Values after ≈ are worked out from the molar mass of the structure shown.

As to `C[C@H](N)C(=O)N[C@@H](Cc1ccc(B(O)O)cc1)C(=O)O` [Ala-BPA, Alanine-BPA], in the data set with FaDu cells [1], the “boron uptake (compared in words)” value is on record as “to a lower extent than BPA”. Also, the “relative conversion into BPA in the presence of cells” value (shortened to “relative conversion into BPA”) in the data set on FaDu cells [2] is on record as “Ala-BPA > BPA-BPA > BPA-Ala”.

`N[C@@H](Cc1ccc(B(O)O)cc1)C(=O)O` [BPA, 4-Borono-L-phenylalanine, reference compound]: the “boron uptake (compared in words)” value in the data set with FaDu cells [1] was “to a much greater extent than His-BPA”. Further, the “effect of Gly-SAR on boron uptake” value in the data set with AsPC-1 cells and in the data set with FaDu cells [3] was “no effect” throughout. In addition, the “tumor growth after BNCT” value in the data set on CT26 xenografts [4] (200 mg/kg, 6 minutes irradiation at 5 MW) is “only modest tumor inhibition”; in the data set with CT26 xenografts [4] (200 mg/kg, 12 minutes irradiation at 5 MW), “significant and similar growth inhibition, even regression”; with CT26 xenografts [5] (400 mg/kg, group sacrificed by day 18), “continued tumor growth”. In addition, the solubility in [6] (L-BPA without fructose) is 1700 µg/mL (≈ 8.13 mM). Moreover, the “concentration achieved with fructose formulation” value in data set [6] (fructose formulation, quasi-stable solution) is 30000 µg/mL.

In the case of `CC(NC(=O)[C@@H](N)Cc1ccc(B(O)O)cc1)C(=O)O` (stereo partly drawn) [BPA-Ala, BPA-Alanine], the “boron uptake (compared in words)” value in the data set on FaDu cells [1] was “to a lower extent than BPA”. In addition, in the data set on FaDu cells [2], the “relative conversion into BPA” value was “Ala-BPA > BPA-BPA > BPA-Ala”.

As to `N[C@@H](Cc1ccc(B(O)O)cc1)C(=O)N[C@@H](Cc1ccc(B(O)O)cc1)C(=O)O` [BPA-BPA], in “Solubility”, the “solubility (in words, compared to BPA)” value is on record as “improved solubility”. The “boron uptake compared to BPA” value with CT26 is “to a similar extent”. In addition, in the data set on T98G, the “boron uptake compared to BPA” value was “to a similar extent”. Moreover, in the data set on FaDu cells [1], the “boron uptake (compared in words)” value is reported as “slightly lower than the LAT1 substrate BPA”. Besides, in the data set with A431, the “boron uptake compared to BPA” value is on record as “slightly lower than the LAT1 substrate BPA”. Besides, in the data set on FaDu cells [2], the “relative conversion into BPA” value is “Ala-BPA > BPA-BPA > BPA-Ala”. Moreover, the “formation of BPA in the absence of cells” value in the data set with FaDu cells [2] (2.5 mM, 4 hrs, media, no cells) is “Only trace amount of BPA”. In data set [7], the “clearance (CL) compared to BPA” value is given as “remarkably similar”, the “total drug exposure across time (AUC from zero to infinity) compared to BPA” value is listed as “marginally lower” and the “t½ beta (elimination phase) compared to BPA” value is reported as “remarkably similar”. Further, the pharmacokinetic profile entry in [7] (blood boron) is recorded as “bi-phasic pharmacokinetics”. In addition, in data set [8], the “tumor boron delivery, rank among treatments” value was “greatest boron to all tested xenografts”. In addition, in the data set with CT26 xenografts [4] (800 mg/kg, 12 minutes irradiation at 5 MW), the “tumor growth after BNCT” value is “significant and similar growth inhibition, even regression”. In the data set with CT26 xenografts [5] (900 mg/kg, sustained out to 36 days), the “tumor growth after BNCT” value is on record as “significant tumor regression”. For the same compound, in data set [9], the “AUC (0 − t)” value was found to be 20463.9 µg·min/mL; the “AUC (0 − ∞)” value is 29133.2 µg·min/mL; the “C0” value is 522.0 µg/mL; the “CL, mg/(μg/mL)/min” value was 0.000113 mg/(μg/mL)/min. The “CMAX” value in data set [9] was 362.83 µg/mL.

As to `CC(C)C[C@H](N)C(=O)N[C@@H](Cc1ccc(B(O)O)cc1)C(=O)O` [Leu-BPA, Leucine-BPA], the “boron uptake (compared in words)” value with FaDu cells [1] was “to a lower extent than BPA”.

Take sodium borocaptate [BSH]: the 5-year survival rate with intracranial tumor is recorded as 58%.
